Where two headings read alike, the source gives them in different places. Positions of bridges follow the written chain, without caps; N, C: chain ends. Residues, ends and D or L forms follow the SMILES beside them. *: point of attachment. Acm = CC(=O)NC*; tBu = CC(C)(C)*
What was measured:
[1] = system: Escherichia coli (MG1655); conditions: pH 7.4
[2] = system: Staphylococcus aureus (NCTC 8530); conditions: pH 7.4
[3] = system: P. aeruginosa; test: Salt sensitivity assay (150 mM NaCl); assay type: cell-based, Pseudomonas aeruginosa; conditions: peptides at lethal concentrations
[4] = system: Candida albicans (ATCC 18804); conditions: ATCC 18804, 2 h
[5] = system: P. aeruginosa; assay type: cell-based, Pseudomonas aeruginosa; conditions: peptide treated cells plated at fixed time intervals during 2 hrs of incubation
Protocol: The antibacterial activity of peptides was examined against Gram-negative bacteria Escherichia coli (MG1655), Pseudomonas aeruginosa (NCTC 6750) and Gram-positive bacteria Staphylococcus aureus (NCTC 8530) using colony counting assay. Bacteria were sub-cultured on nutrient broth (Difco, Detroit, MI, US) at 37°C to mid-logarithmic phase from an overnight grown culture. The cells were harvested and washed with 10 mM sodium phosphate buffer (pH 7.4). 100 μl of suspension containing 10^6 cfu/ml was incubated with varying concentration of peptides for 2 hrs at 37°C. The cells were spread on nutrient agar plates and incubated for 14–18 hrs at 37°C. The numbers of colony forming units (cfu) was counted and minimum concentration at which more than 99% of killing observed was taken as lethal concentration (LC). Fungicidal activity against Candida albicans (ATCC 18804) was also determined as described for the bacteria. […] The effect of loss of proton motif force (pmf) in bacteria and C. albicans on the antimicrobial activity of the peptides was determined by adding the metabolic inhibitor like carbonyl cyanide m-chlorophenylhydrazone (CCCP) (50 μM) into the cell suspension 20 mins prior to the peptides treatment. The rate of killing with respect to time was determined by plating the peptide treated cells at fixed time intervals during 2 hrs of incubation. […]

[6] = system: E. coli; assay type: cell-based, Escherichia coli
[7] = system: E. coli; assay type: cell-based, Escherichia coli; remark: listed apart in the source
[8] = system: Pseudomonas aeruginosa (NCTC 6750); conditions: NCTC 6750, 2 h, pH 7.4
[9] = system: S. aureus; assay type: cell-based, Staphylococcus aureus

In the case of `CC[C@H](C)[C@@H]1NC(=O)[C@H](CCCNC(=N)N)NC(=O)[C@H](Cc2ccc(O)cc2)NC(=O)[C@H](CCC(=O)O)NC(=O)[C@H](CCC(N)=O)NC(=O)[C@H](CO)NC(=O)[C@H](CCCNC(=N)N)NC(=O)[C@H](CCCCN)NC(=O)[C@H](CCCCN)NC(=O)[C@H](CCCNC(=N)N)NC(=O)[C@@H](NC(=O)[C@H](CCCNC(=N)N)NC(=O)[C@H](C)NC(=O)[C@@H](NC(=O)CNC(=O)[C@H](Cc2ccc(O)cc2)NC(=O)CNC(=O)[C@H](CO)NC(=O)[C@H](CO)NC(=O)[C@@H](NC(=O)[C@H](CCCNC(=N)N)NC(=O)[C@H](CC(=O)O)NC(=O)[C@H](CC(C)C)NC(=O)[C@H](CCC(=O)O)NC(=O)[C@H](Cc2ccccc2)NC(=O)[C@@H](N)CCC(=O)O)[C@@H](C)CC)[C@@H](C)O)CSSC[C@@H](C(=O)N[C@@H](CC(C)C)C(=O)N[C@@H](CCCNC(=N)N)C(=O)N[C@@H](CCCCN)C(=O)O)NC(=O)[C@H](CO)NC(=O)[C@H](C)NC(=O)[C@H](Cc2ccc(O)cc2)NC(=O)[C@H]([C@@H](C)O)NC(=O)[C@H](CC(N)=O)NC(=O)[C@@H]2CCCN2C(=O)[C@H](CO)NC(=O)[C@H](CCCNC(=N)N)NC(=O)CNC1=O` [H4-1d[S]] (H-EFELDRISSGYGTARCRKKRSQEYRIGRSPNTYASCLRK-OH; disulfide 16-36), the “lethal concentration (LC) against E. coli” value [1] is reported as 3 µM and the “lethal concentration (LC) against S. aureus” value [2] is reported as 5 µM.

With `CC[C@H](C)[C@@H]1NC(=O)[C@H](CCCNC(=N)N)NC(=O)[C@H](Cc2ccc(O)cc2)NC(=O)[C@H](CCC(=O)O)NC(=O)[C@H](CCC(N)=O)NC(=O)[C@H](CO)NC(=O)[C@H](CCCNC(=N)N)NC(=O)[C@H](CCCCN)NC(=O)[C@H](CCCCN)NC(=O)[C@H](CCCNC(=N)N)NC(=O)[C@@H](NC(=O)[C@H](CCCNC(=N)N)NC(=O)[C@H](C)NC(=O)[C@@H](NC(=O)CNC(=O)[C@H](Cc2ccc(O)cc2)NC(=O)CNC(=O)[C@H](CO)NC(=O)[C@H](CO)NC(=O)[C@@H](NC(=O)[C@H](CCCNC(=N)N)NC(=O)[C@H](CC(=O)O)NC(=O)[C@H](CC(C)C)NC(=O)[C@@H](N)CCC(=O)O)[C@@H](C)CC)[C@@H](C)O)CSSC[C@@H](C(=O)N[C@@H](CC(C)C)C(=O)N[C@@H](CCCNC(=N)N)C(=O)N[C@@H](CCCCN)C(=O)O)NC(=O)[C@H](CO)NC(=O)[C@H](C)NC(=O)[C@H](Cc2ccc(O)cc2)NC(=O)[C@H]([C@@H](C)O)NC(=O)[C@H](CC(N)=O)NC(=O)[C@@H]2CCCN2C(=O)[C@H](CO)NC(=O)[C@H](CCCNC(=N)N)NC(=O)CNC1=O` [H4-1d[S]ΔEF] (H-ELDRISSGYGTARCRKKRSQEYRIGRSPNTYASCLRK-OH; disulfide 14-34; N-terminus and C-terminus assumed) the “lethal concentration (LC) against E. coli” value [1] was 3 µM and the “lethal concentration (LC) against S. aureus” value [2] was 5 µM.

In the case of `CC[C@H](C)[C@@H]1NC(=O)[C@H](CCCNC(=N)N)NC(=O)[C@H](Cc2ccc(O)cc2)NC(=O)[C@H](CCC(=O)O)NC(=O)[C@H](CCC(N)=O)NC(=O)[C@H](CO)NC(=O)[C@H](CCCNC(=N)N)NC(=O)[C@@H]2CSSC[C@@H](C(=O)N[C@@H](CC(C)C)C(=O)N[C@@H](CCCNC(=N)N)C(=O)N[C@@H](CCCCN)C(=O)O)NC(=O)[C@@H]3CSSC[C@H](NC(=O)[C@@H](NC(=O)[C@H](CCCNC(=N)N)NC(=O)[C@H](CC(=O)O)NC(=O)[C@H](CC(C)C)NC(=O)[C@@H](N)CCC(=O)O)[C@@H](C)CC)C(=O)NCC(=O)N[C@@H](Cc4ccc(O)cc4)C(=O)NCC(=O)N[C@@H]([C@@H](C)O)C(=O)N[C@@H](C)C(=O)N[C@@H](CCCNC(=N)N)C(=O)N[C@@H](CSSC[C@H](NC(=O)[C@H](CCCNC(=N)N)NC(=O)CNC1=O)C(=O)N1CCC[C@H]1C(=O)N[C@@H](CC(N)=O)C(=O)N[C@@H]([C@@H](C)O)C(=O)N[C@@H](Cc1ccc(O)cc1)C(=O)N[C@@H](C)C(=O)N3)C(=O)N[C@@H](CCCNC(=N)N)C(=O)N[C@@H](CCCCN)C(=O)N[C@@H](CCCCN)C(=O)N2` [HBD4, Human β-defensin 4] (H-ELDRICGYGTARCRKKCRSQEYRIGRCPNTYACCLRK-OH; disulfide 6-33, 13-27, 17-34; N-terminus and C-terminus assumed), the “lethal concentration (LC) against E. coli” value ([1]; MG1655, 2 h) is reported as 5 (0.53) μM, the “activity against P. aeruginosa in the presence of 150 mM NaCl” value [3] is reported as “significant loss in activity” and the “minimum fungicidal concentration (MFC) against C. albicans” value [4] is reported as 7.5 (0.91) μM. For the same molecule, the “lethal concentration (LC) against S. aureus” value ([2]; NCTC 8530, 2 h) was 15 (0.47) μM, the “rate of killing of P. aeruginosa” value [5] was “more rapidly as compared to the analogs” and the “activity against E. coli in the presence of 150 mM NaCl” value [6] was “significant loss in activity”. The “salt sensitivity against E. coli in the absence of pmf” value [6] was “attenuation of activity by NaCl is not observed”, the “time of incubation for killing of E. coli” value [7] was no more than 30 min and the “lethal concentration (LC) against P. aeruginosa” value [8] was 12 (1.35) μM. For the same molecule, the “activity against S. aureus in the presence of 150 mM NaCl” value [9] was “significant loss in activity”.

In the case of `CC[C@H](C)[C@@H]1NC(=O)[C@H](CCCNC(=N)N)NC(=O)[C@H](Cc2ccc(O)cc2)NC(=O)[C@H](CCC(=O)O)NC(=O)[C@H](CCC(N)=O)NC(=O)[C@H](CO)NC(=O)[C@H](CCCNC(=N)N)NC(=O)[C@H](CCCCN)NC(=O)[C@H](CCCCN)NC(=O)[C@H](CCCNC(=N)N)NC(=O)[C@@H](NC(=O)[C@H](CCCNC(=N)N)NC(=O)[C@H](C)NC(=O)[C@@H](NC(=O)CNC(=O)[C@H](Cc2ccc(O)cc2)NC(=O)CNC(=O)[C@H](CSC(C)(C)C)NC(=O)[C@H](CSCNC(C)=O)NC(=O)[C@@H](NC(=O)[C@H](CCCNC(=N)N)NC(=O)[C@H](CC(=O)O)NC(=O)[C@H](CC(C)C)NC(=O)[C@@H](N)CCC(=O)O)[C@@H](C)CC)[C@@H](C)O)CSSC[C@@H](C(=O)N[C@@H](CC(C)C)C(=O)N[C@@H](CCCNC(=N)N)C(=O)N[C@@H](CCCCN)C(=O)O)NC(=O)[C@H](CSCNC(C)=O)NC(=O)[C@H](C)NC(=O)[C@H](Cc2ccc(O)cc2)NC(=O)[C@H]([C@@H](C)O)NC(=O)[C@H](CC(N)=O)NC(=O)[C@@H]2CCCN2C(=O)[C@H](CSC(C)(C)C)NC(=O)[C@H](CCCNC(=N)N)NC(=O)CNC1=O` [Peptide H4-1dΔEF] (H-ELDRIC(Acm)C(tBu)GYGTARCRKKRSQEYRIGRC(tBu)PNTYAC(Acm)CLRK-OH; disulfide 14-34; N-terminus and C-terminus assumed), the “lethal concentration (LC) against E. coli” value [1] is reported as 2.5 µM and the “lethal concentration (LC) against S. aureus” value [2] is reported as 3.5 µM.

Source: paper PMC4364940, “Human β-Defensin 4 with Non-Native Disulfide Bridges Exhibit Antimicrobial Activity” (PLoS ONE, 2015)
